Experimental data: patent publication US20100137313A1 (ASTRAZENECA AB, priority 2008, published 2010)

Molecular target: S. pneumoniae Topoisomerase IV ATPase (ParE) (Streptococcus pneumoniae serotype 4, UniProt Q59961)
Test: S. pneumoniae Topoisomerase IV ATPase inhibition
Format: biochemical
Conditions: values marked * are an average of two or more data points, read-out: % Inh (13 μM) of S. pneumoniae Topoisomerase IV ATPase
Outline: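 Phosphate-release ATPase assay: 1.25 nM ParE, 160 μM ATP, DNA-stimulated. Quench with malachite green/molybdate in 1 M HCl, read 650 nm; IC50 from 10-point dose series.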

S. pneumoniae Topoisomerase IV ATPase (ParE), sequence (Q59961 whole entry): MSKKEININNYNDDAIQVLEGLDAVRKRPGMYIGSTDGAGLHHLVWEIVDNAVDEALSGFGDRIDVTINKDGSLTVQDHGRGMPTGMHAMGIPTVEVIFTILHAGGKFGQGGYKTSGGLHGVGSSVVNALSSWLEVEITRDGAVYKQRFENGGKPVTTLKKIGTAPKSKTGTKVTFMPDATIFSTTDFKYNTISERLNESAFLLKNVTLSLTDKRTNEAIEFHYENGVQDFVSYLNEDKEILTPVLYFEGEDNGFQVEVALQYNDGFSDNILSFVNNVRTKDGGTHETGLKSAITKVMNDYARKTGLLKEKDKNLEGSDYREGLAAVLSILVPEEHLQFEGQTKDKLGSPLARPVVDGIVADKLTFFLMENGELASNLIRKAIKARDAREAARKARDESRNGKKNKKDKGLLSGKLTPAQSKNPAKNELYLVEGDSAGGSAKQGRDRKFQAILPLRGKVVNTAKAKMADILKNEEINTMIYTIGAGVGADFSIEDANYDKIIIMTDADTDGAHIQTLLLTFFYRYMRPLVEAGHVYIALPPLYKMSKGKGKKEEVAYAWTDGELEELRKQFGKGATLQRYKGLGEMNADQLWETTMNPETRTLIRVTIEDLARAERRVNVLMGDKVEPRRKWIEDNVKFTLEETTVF

Compound | inhibition at 13 µM [%]
CN(C)CCCNc1nc(Nc2ccc(F)c(Cl)c2)ncc1-c1cncc(C#N)c1 [Example 15, 5-{2-(3-chloro-4-fluorophenylamino)-4-[3-(dimethylamino)propylamino]pyrimidin-5-yl}nicotinitrile] | 100
COCCn1cc(-c2cnc(Nc3cc(OC)cc(OC)c3)nc2-n2ccc(C(F)(F)F)n2)cc(C(=O)NS(C)(=O)=O)c1=O [Example 1163, 5-(2-(3,5-dimethoxyphenylamino)-4-(3-(trifluoromethyl)-1H-pyrazol-1-yl)pyrimidin-5-yl)-1-(2-methoxyethyl)-N-(methylsulfonyl)-2-oxo-1,2-dihydropyridine-3-carboxamide] | 100
O=C(O)/C=C/c1cccc(-c2cnc(Nc3ccc(F)c(Cl)c3)nc2-n2ccc(C(F)(F)F)n2)c1 [Example 323, (2E)-3-(3-{2-[(3-chloro-4-fluorophenyl)amino]-4-[3-(trifluoromethyl)-1H-pyrazol-1-yl]pyrimidin-5-yl}phenyl)prop-2-enoic acid] | 99.5
CCOC(=O)c1cncc(-c2cnc(Nc3ccc(F)c(Cl)c3)nc2N2CCC(NC(C)=O)CC2)c1 [Example 129, ethyl 5-[4-(4-acetamidopiperidin-1-yl)-2-[(3-chloro-4-fluorophenyl)amino]pyrimidin-5-yl]pyridine-3-carboxylate] | 74.9
CS(=O)(=O)NC(=O)c1cncc(-c2cnc(Nc3ccc(F)c(Cl)c3)nc2-n2ccc(C(F)(F)F)n2)c1 [Example 874, 5-(2-(3-chloro-4-fluorophenylamino)-4-(3-(trifluoromethyl)-1H-pyrazol-1-yl)pyrimidin-5-yl)-N-(methylsulfonyl)nicotinamide] | 100
COc1cc(C)cc(Nc2ncc(-c3cnc(OC)c(C(=O)O)c3)c(-n3nc(C(F)(F)F)cc3C)n2)c1 [Example 761, 2-methoxy-5-{2-[(3-methoxy-5-methylphenyl)amino]-4-[5-methyl-3-(trifluoromethyl)-1H-pyrazol-1-yl]pyrimidin-5-yl}pyridine-3-carboxylic acid] | 100
COc1cc(Nc2ncc(-c3cnc(SC)c(C(=O)NS(C)(=O)=O)c3)c(-n3ccc(C(F)(F)F)n3)n2)cc(OC)c1 [Example 852, 5-{2-[(3,5-dimethoxyphenyl)amino]-4-[3-(trifluoromethyl)-1H-pyrazol-1-yl]pyrimidin-5-yl}-2-(methylsulfanyl)-N-(methylsulfonyl)pyridine-3-carboxamide] | 100
COc1cc(F)cc(Nc2ncc(-c3cccc(/C=C/C(=O)O)c3)c(N3CCOCC3)n2)c1 [Example 410, (E)-3-{3-[2-(3-Fluoro-5-methoxy-phenylamino)-4-morpholin-4-yl-pyrimidin-5-yl]-phenyl}-acrylic acid] | 100
COc1ccc(-c2cnc(Nc3ccc(F)c(Cl)c3)nc2NCCCN(C)C)cn1 [Example 18, N^2-(3-chloro-4-fluorophenyl)-N^4-[3-(dimethylamino)propyl]-5-(6-methoxy-pyridin-3-yl)pyrimidin-2,4-diamine] | 96.6
CCOC(=O)c1cncc(-c2cnc(Nc3ccc(F)c(Cl)c3)nc2N2CCN(C(C)=O)CC2)c1 [Example 142, ethyl 5-(4-(4-acetylpiperazin-1-yl)-2-(3-chloro-4-fluorophenylamino)pyrimidin-5-yl)nicotinate] | 86.2
COCCN1CCN(c2nc(Nc3ccc(F)c(Cl)c3)ncc2-c2cncc(C(=O)O)c2)CC1 [Example 284, 5-(2-(3-chloro-4-fluorophenylamino)-4-(4-(2-methoxyethyl)piperazin-1-yl)pyrimidin-5-yl)nicotinic acid] | 69.4
NC(=O)c1cncc(-c2cnc(Nc3ccc(F)c(Cl)c3)nc2-n2cc(-c3ccncn3)cn2)c1 [Example 543, 5-{2-[(3-chloro-4-fluorophenyl)amino]-4-[4-(pyrimidin-4-yl)-1H-pyrazol-1-yl]pyrimidin-5-yl}pyridine-3-carboxamide] | 68
CCOC(=O)c1cncc(-c2cnc(Nc3ccc(F)c(Cl)c3)nc2NCCc2cccnc2)c1 [Example 102, 5-[2-(3-Chloro-4-fluoro-phenylamino)-4-(2-pyridin-3-yl-ethylamino)-pyrimidin-5-yl]-nicotinic acid ethyl ester] | 73.5
Fc1ccc(Nc2ncc(-c3cncnc3)c(N3CCCCCC3)n2)cc1Cl [Example 213, 4-(azepan-1-yl)-N-(3-chloro-4-fluorophenyl)-5-pyrimidin-5-ylpyrimidin-2-amine] | 55.8
COCCCNc1nc(Nc2ccc(F)c(Cl)c2)ncc1-c1nc(C(=O)OC)cs1 [Example 212, Methyl 2-(2-(3-chloro-4-fluorophenylamino)-4-(3-methoxypropylamino)pyrimidin-5-yl)thiazole-4-carboxylate] | 14.5
COc1ccc(-c2cnc(Nc3ccc(F)c(Cl)c3)nc2-n2ccc(C(F)(F)F)n2)cc1C(N)=O [Example 1106, 5-(2-(3-chloro-4-fluorophenylamino)-4-(3-(trifluoromethyl)-1H-pyrazol-1-yl)pyrimidin-5-yl)-2-methoxybenzamide] | 21
CCOC(=O)c1cncc(-c2cnc(Nc3ccc(F)c(Cl)c3)nc2N2CCC(O)C2)c1 (stereo not drawn) [Example 123, ethyl 5-[2-[(3-chloro-4-fluorophenyl)amino]-4-(3-hydroxypyrrolidin-1-yl)pyrimidin-5-yl]pyridine-3-carboxylate] | 66.4
Cc1cc(C(F)(F)F)nn1-c1nc(Nc2ccc3c(c2)OCO3)ncc1-c1cncc(C(=O)O)c1 [Example 671, 5-{2-(1,3-benzodioxol-5-ylamino)-4-[5-methyl-3-(trifluoromethyl)-1H-pyrazol-1-yl]pyrimidin-5-yl}pyridine-3-carboxylic acid] | 92
COc1cc(C#N)cc(Nc2ncc(-c3cccc(/C=C/C(=O)O)c3)c(-n3nc(C(F)(F)F)cc3C)n2)c1 [Example 729, (2E)-3-(3-{2-[(3-cyano-5-methoxyphenyl)amino]-4-[5-methyl-3-(trifluoromethyl)-1H-pyrazol-1-yl]pyrimidin-5-yl}phenyl)prop-2-enoic acid] | 89
COc1ncc(-c2cnc(Nc3cccc(Cl)c3)nc2-n2nc(C(F)(F)F)cc2C)cc1C(=O)O [Example 743, 5-{2-[(3-chlorophenyl)amino]-4-[5-methyl-3-(trifluoromethyl)-1H-pyrazol-1-yl]pyrimidin-5-yl}-2-methoxypyridine-3-carboxylic acid] | 94
Cc1cc(C)cc(Nc2ncc(-c3ccc4c(c3)C(=O)NS4(=O)=O)c(-n3ccc(C(F)(F)F)n3)n2)c1 [Example 833, 5-{2-[(3,5-dimethylphenyl)amino]-4-[3-(trifluoromethyl)-1H-pyrazol-1-yl]pyrimidin-5-yl}-1,2-benzothiazol-3(2H)-one 1,1-dioxide] | 100
COCCCNc1nc(Nc2ccc(F)c(Cl)c2)ncc1-c1cncnc1 [Example 75, N^2-(3-chloro-4-fluorophenyl)-N^4-(3-methoxypropyl)-5,5′-bipyrimidin-2,4-diamine] | 97.6
Cc1cc(C)cc(Nc2ncc(-c3cncc(C(=O)O)c3)c(N3CCOCC3)n2)c1 [Example 389, 5-[2-(3,5-Dimethyl-phenylamino)-4-morpholin-4-yl-pyrimidin-5-yl]-nicotinic acid] | 85
COc1cc(Nc2ncc(-c3cccc(/C=C/C(=O)O)c3)c(N3CC(C)OC(C)C3)n2)cc(C(F)(F)F)c1 (stereo not drawn) [Example 348, (E)-3-(3-(4-(2,6-dimethylmorpholino)-2-(3-methoxy-5-(trifluoromethyl)phenylamino)pyrimidin-5-yl)phenyl) acrylic acid] | 85.7
COC1CCN(c2nc(Nc3ccc(F)c(Cl)c3)ncc2-c2cncnc2)CC1 [Example 65, N-(3-chloro-4-fluorophenyl)-4-(4-methoxypiperidin-1-yl)-5-pyrimidin-5-ylpyrimidin-2-amine] | 75.9
COc1cc(Nc2ncc(-c3cnc(OC)c(C(=O)NS(=O)(=O)c4cn(C)cn4)c3)c(-n3nc(C(F)(F)F)cc3C)n2)cc(OC)c1 [Example 839, 5-{2-[(3,5-dimethoxyphenyl)amino]-4-[5-methyl-3-(trifluoromethyl)-1H-pyrazol-1-yl]pyrimidin-5-yl}-2-methoxy-N-[(1-methyl-1H-imidazol-4-yl)sulfonyl]pyridine-3-carboxamide] | 100
COc1ncc(-c2cnc(Nc3cc(C)cc(Cl)c3)nc2-n2nc(C(F)(F)F)cc2C)cc1C(=O)O [Example 802, 5-{2-[(3-chloro-5-methylphenyl)amino]-4-[5-methyl-3-(trifluoromethyl)-1H-pyrazol-1-yl]pyrimidin-5-yl}-2-methoxypyridine-3-carboxylic acid] | 100
COc1cc(Nc2ncc(-c3cnc(OC)c(C(=O)NS(C)(=O)=O)c3)c(-n3nc(C(F)(F)F)cc3C)n2)cc(OC)c1 [Example 909, 5-(2-(3,5-dimethoxyphenylamino)-4-(5-methyl-3-(trifluoromethyl)-1H-pyrazol-1-yl)pyrimidin-5-yl)-2-methoxy-N-(methylsulfonyl)nicotinamide] | 100
O=C(O)COc1ccc(-c2cnc(Nc3ccc(F)c(Cl)c3)nc2N2CCOCC2)cc1 [Example 489, (4-{2-[(3-chloro-4-fluorophenyl)amino]-4-(morpholin-4-yl)pyrimidin-5-yl}phenoxy)acetic acid] | 97
CCN(CC)S(=O)(=O)c1cncc(-c2cnc(Nc3ccc(F)c(Cl)c3)nc2-n2ccc(C(F)(F)F)n2)c1 [Example 1033, 5-(2-(3-Chloro-4-fluorophenylamino)-4-(3-(trifluoromethyl)-1H-pyrazol-1-yl)pyrimidin-5-yl)-N,N-diethylpyridine-3-sulfonamide] | 20
